Test results: patent US20060166933A1, “Novel 2H-chromene derivatives as selective estrogen receptor modulators” (priority 2004, published 2006)

Tests used:
hER-β = biological target: T1, hER-β (Homo sapiens, UniProt Q92731); assay: Estrogen Receptor β Fluorescence Polarization Assay (Fluormone ES2 displacement); settings: Fluormone ES2, 1 h room temperature, read-out: ER β-Binding
T1 construct: purchased Panvera
Text: Estrogen Receptor β Fluorescence Polarization Assay
This assay monitors binding of a fluorescent analog of estrogen (Fluormone ES2, Panvera) to the estrogen receptor. Plates are read in a fluorometer that can be set to polarization mode. A decrease in […] relative to vehicle control is an indication of binding of a compound to the receptor.
It is crucial to avoid introduction of air bubbles into the reaction in each well of the 96 well plate throughout this procedure. (Bubbles on the surface of the reaction disrupt light flow, affecting the polarization reading.) However, it is also crucial to effectively mix the reaction components upon addition to the well.
On ice, a 2× standard mixture of Assay Buffer (Panvera), 10 nM DTT and 40 nM ES2 was prepared. On ice, a 2× reaction mixture of Assay Buffer (Panvera), and 20 nM hER-β (Panvera) and 40 nM ES2 was also prepared.
Dilutions of test compound were prepared in 30% (v/v) dimethyl sulfoxide/50 mM HEPES, pH 7.5. At this point, the dilutions were 40× the final required concentration.
The standard mixture at 50 μL was then added to each well. The reaction mixture at 48 μL was added to all wells. The compound dilution at 2.5 μL was added to the appropriate wells. The reaction mixtures were mixed using a manual pipette, a roll of aluminum foil adhesive cover was placed on the plate and the plate incubated at room temperature for 1 hour.
Each well on the plate was then read in an LjL Analyst with an excitation wavelength of […] and an emission wavelength of 538.
(§1) Representative compounds of the present invention were tested according to the procedures described in Examples 23-24, above for binding to the estrogen-α and estrogen-β receptors, with results as listed in Table 2, below.

[1] = biological target: T2, human estrogen receptor α (Homo sapiens, UniProt P03372); assay: Estrogen Receptor α Flash Plate Assay (binding of radiolabeled estrogen); settings: radiolabeled estrogen 0.5 nM, FlashPlate, 1 h room temperature; read-out: ER-α Binding
T2 construct: purchased Panvera
T2 sequence (P03372 1-595): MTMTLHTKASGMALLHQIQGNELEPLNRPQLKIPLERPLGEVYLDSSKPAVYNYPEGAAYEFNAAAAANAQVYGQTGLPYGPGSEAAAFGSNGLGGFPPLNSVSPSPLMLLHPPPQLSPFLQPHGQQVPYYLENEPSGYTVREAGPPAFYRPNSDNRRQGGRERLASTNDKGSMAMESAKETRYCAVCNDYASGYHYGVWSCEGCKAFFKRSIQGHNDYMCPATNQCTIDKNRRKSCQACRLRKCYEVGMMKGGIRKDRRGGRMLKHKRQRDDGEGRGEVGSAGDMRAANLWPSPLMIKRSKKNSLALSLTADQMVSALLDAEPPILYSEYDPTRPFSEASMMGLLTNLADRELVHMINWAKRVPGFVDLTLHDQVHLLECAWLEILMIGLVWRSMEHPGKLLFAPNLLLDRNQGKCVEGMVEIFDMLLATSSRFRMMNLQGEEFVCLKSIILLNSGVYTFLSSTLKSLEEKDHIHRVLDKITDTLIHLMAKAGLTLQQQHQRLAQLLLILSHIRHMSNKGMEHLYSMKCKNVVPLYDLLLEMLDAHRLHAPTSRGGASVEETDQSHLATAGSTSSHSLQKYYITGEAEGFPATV
Experimental: Estrogen Receptor α Flash Plate Assay
This assay monitors binding of radiolabeled estrogen to the estrogen receptor. It is performed on a BioMek 2000 (Beckman). Plates are read in a scintillation counter (Packard TopCount), with decreased counts an indication of binding of a compound to the receptor. The assay was run according to the procedure described by Allan, et al., Anal. Biochem. (1999), 275(2), 243-247.
On day one, 100 μL of Estrogen Screening Buffer (ESB, Panvera) containing 5 mM dithiothreitol (DTT, Panvera), 0.5 μg mouse anti-estrogen receptor monoclonal antibody (SRA-1010, Stressgen) and 50 ng purified human estrogen receptor a (Panvera) were added to each well of a 96 well FlashPlate Plus plate crosslinked with goat anti-mouse antibodies (NEN Life Sciences). The plate was sealed and incubated at 4° C. overnight.
On day two, each well was washed three times with 200 μL PBS, pH 7.2, at room temperature. To each well was then added 98 μL radiolabeled estrogen (0.5 nM, which equals 6 nCi for a 120 Ci/mmol batch, Amersham), diluted in ESB and 5 mM dithiothreitol (DTT). To individual wells were then added 2.5 μL test compound diluted in 30% (v/v) dimethyl sulfoxide/50 mM HEPES, pH 7.5. The wells were mixed three times by aspiration, the plate sealed and incubated at room temperature for one hour. The wells were then counted for 1 min in a TopCount scintillation counter (Packard).
as §1

T1 sequence (Q92731 whole entry): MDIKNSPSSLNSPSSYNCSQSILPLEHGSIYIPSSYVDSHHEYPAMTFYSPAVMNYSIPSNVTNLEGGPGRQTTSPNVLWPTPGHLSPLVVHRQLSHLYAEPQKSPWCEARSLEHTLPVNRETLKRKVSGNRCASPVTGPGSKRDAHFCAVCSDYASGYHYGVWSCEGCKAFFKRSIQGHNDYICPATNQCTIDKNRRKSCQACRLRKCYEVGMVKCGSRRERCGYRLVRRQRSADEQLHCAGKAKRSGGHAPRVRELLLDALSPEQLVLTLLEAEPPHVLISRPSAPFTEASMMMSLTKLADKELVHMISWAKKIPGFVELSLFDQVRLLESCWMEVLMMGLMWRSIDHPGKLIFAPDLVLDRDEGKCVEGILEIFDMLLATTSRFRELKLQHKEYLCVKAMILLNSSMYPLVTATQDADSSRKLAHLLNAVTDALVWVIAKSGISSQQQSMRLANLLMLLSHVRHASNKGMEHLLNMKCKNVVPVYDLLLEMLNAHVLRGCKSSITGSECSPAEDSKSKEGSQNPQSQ

| Molecule | IC50 (hER-β) [nM] | IC50 [1] [nM] |
| --- | --- | --- |
| 4-(2-Hydroxy-ethyl)-2-[4-(2-piperidin-1-yl-ethoxy)-phenyl]-2H-chromen-7-ol [ID No. 6] | 500 | 500 |
| 4-Methyl-2-[4-(2-piperidin-1-yl-ethoxy)-phenyl]-2-H-chromen-7-ol [ID No. 4] | > 10000 | 2200 |
| CC1=C(COCC[Si](C)(C)C)[C@H](c2ccc(OCCN3CCCCC3)cc2)Oc2cc(O)ccc21 (single isomer, unassigned) [compound 3] | > 10000 | 180 |
| OCCC1=CC(c2ccc(OCCN3CCCCC3)cc2)Oc2cc(O)ccc21 (stereo not drawn) [compound 6] | > 10000 | > 10000 |
| Oc1ccc2c(c1)OC(c1ccc(OCCN3CCCCC3)cc1)C1=C2CCCCC1 (stereo not drawn) [compound 9] | 690 | 59 |
| Oc1ccc2c(c1)OC(c1ccc(OCCN3CCCCC3)cc1)C=C2C1CCCC1 (stereo not drawn) [compound 10] | 500 | 180 |
